Patent US6495570B2, “Combination drug therapy for glycolipid storage diseases” (G. D. Searle & Co., priority 1999, dated 2002)
“And” between values parts separate entries of the source, which are not always exact repeats. Equal values may be shown once.

Legend:
glycolipid biosynthesis = conditions: cited from earlier work
[1] = tested on: glycolipid biosynthesis in Chinese hamster ovary (CHO) cells; test: Inhibition of glycolipid biosynthesis in CHO cells (radiolabelled palmitic acid, TLC, scanning densitometry); assay type: cell-based; conditions: for IC50: Cricetulus griseus, range quoted for variability of the radiolabelled products, read-out: IC50, inhibition of glycolipids (glucosylceramide and lactosylceramide bands)
Method: (§1) Cells were cultured for four days in the presence of radiolabelled palmitic acid and the following concentrations of compound:
(§2) After extraction the radioactively labelled glycolipids were separated by TLC and visualized by radioautography. NB-DNJ is N-butyl-DNJ. NN-DNJ is N-nonyl-DNJ.
(§3) Chinese Hamster Ovary (CHO) cells and human myeloid (HL-60) cells grown in the presence of varying concentrations of inhibitor in addition to a precursor (radiolabelled palmitic acid) of glycolipid biosynthesis were treated with solvents to extract the glycolipids by the procedure described by Platt et al., J. Biol. Chem. 269, 8362-8365 (1994).
(§4) The radiolabelled lipids were separated by TLC (FIG. 1) and bands corresponding to glucosylceramide and lactosylceramide were quantitated by scanning densitometry to estimate the reduction in glycolipid biosynthesis.
(§5) Table 1. […] Radiolabelled glucosylceramide and lactosylceramide bands from FIG. 1 were quantitated by scanning densitometry and the percentage of control (no treatment, track a, FIG. 1) expressed in comparison to compound dose. From the linear curve, an IC50 value was obtained. A range of values is quoted to represent variability of the radiolabelled products.

[2] = tested on: glycolipid biosynthesis in human myeloid (HL-60) cells; test: Inhibition of glycolipid biosynthesis in HL-60 cells (radiolabelled palmitic acid, TLC, scanning densitometry); assay type: cell-based; conditions: for IC50: Homo sapiens, range quoted for variability of the radiolabelled products, read-out: IC50, inhibition of glycolipids (glucosylceramide and lactosylceramide bands)
Method: as §1, §2, §3, §4, §5

[3] = tested on: CHO, MDBK and HepG2 cells; test: Uptake of radiolabelled compound into cultured cells (cell-associated radioactivity); assay type: in vitro ADME; conditions: incubated up to 24 hours
Method: FIG. 5 is a bar graph of estimated radioactivity. […] Cells were extensively washed and acid precipitated. After solution in NaOH, cell associated radioactivity was determined as a percentage of radiolabelled compound added.
The activity is explained by the differential uptake into cells.

[4] = Organ distribution of radiolabelled compound after oral gavage in the normal mouse; assay type: in vivo
Method: Mouse body fluids and organs were collected for different times (30, 60, 90 minutes) after gavage with radiolabelled compound. Radioactivity in each sample was determined and expressed as a percentage of radioactivity recovered. Solid bars, NN-DNJ, hatched bars, NB-DNJ.
Further evidence that longer alkyl chains are taken up-much better than the shorter alkyl chains has been obtained by in vivo studies with mouse.
Table 2. Recovery of radiolabelled compounds after administration in the normal mouse. Mouse body fluids and organs were collected at different times after gavage with radiolabelled compound. Radioactivity in each sample was determined and expressed as a percentage of radioactivity recovered (data from FIG. 5).

Hepatitis B virus (HBV) = conditions: based on inhibition of alpha-glucosidases in the ER; cited from earlier work
[5] = cited from earlier work
[6] = mice, oral 4800 mg/Kg/day; cited from earlier work
[7] = tested on: human immunodeficiency virus (HIV); conditions: cited from earlier work

| Compound | IC50 [1] [nM] | IC50 ([2]; HL-60 cells) [nM] | % recovered, Brain ([4]; 30 min after gavage, mouse) [%] | % recovered, Liver ([4]; 30 min after gavage, mouse) [%] | % recovered, Brain ([4]; 60 min after gavage, mouse) [%] | % recovered, Liver ([4]; 60 min after gavage, mouse) [%] | % recovered, Brain ([4]; 90 min after gavage, mouse) [%] | % recovered, Liver ([4]; 90 min after gavage, mouse) [%] | dose required for activity against glycolipid biosynthesis (glycolipid biosynthesis) [mg/mL] | further results |
| --- | --- | --- | --- | --- | --- | --- | --- | --- | --- | --- |
| CN1C[C@H](O)[C@@H](O)[C@H](O)[C@H]1CO [N-methyl analog] |  |  |  |  |  |  |  |  |  | activity against glycolipid biosynthesis (glycolipid biosynthesis): inactive |
| CCCCCCCCCN1C[C@H](O)[C@@H](O)[C@H](O)[C@H]1CO [N-nonyl-DNJ, N-nonyl-1,5-dideoxy-1,5-imino-D-glucitol] | 2000 to 2700 | 20 to 400 | 0.4 | 27.1 | 0.3 | 12.6 | 0.4 | 13.5 |  | inhibition of glycolipid biosynthesis, better than N-butyl-DNJ at equivalent concentrations [1]: about ten- to about twenty-fold better; inhibition of glycolipid biosynthesis, better than N-butyl-DNJ at equivalent concentrations ([2]; HL-60 cells): about four hundred times better; cell-associated radioactivity, increase versus N-butyl-DNJ [3]: 3.5-5.0 fold; radioactivity recovered in the liver and brain, higher than N-butyl-DNJ ([4]; after 90 min, oral gavage, mouse): 10 fold; uptake into the brain versus N-butyl-DNJ ([4]; tests of organ distribution): five times better; inhibition of the Hepatitis B virus (HBV) (Hepatitis B virus (HBV)): effective |
| CCCCN1C[C@H](O)[C@@H](O)[C@H](O)[C@H]1CO [N-butyl-DNJ, N-butyl-1,5-dideoxy-1,5-imino-D-glucitol] | 25000 to 50000 | 1800 to 7300 | 0.2 | 8.5 | 0.1 | 2.8 | 0.03 | 0.9 | 0.01 to 0.1 | time of treatment to steady-state plasma concentration ([5]; clinical trial): 4-6 weeks; peak plasma concentration ([5]; oral, 100 mg three times daily, listed as ND-DNJ): 6.8 μM and 1.5 μg/ml; stable serum concentration [6]: 50 µM; effectiveness as an inhibitor of HIV versus the N-ethyl analog [7]: three log orders more effective; effectiveness as an inhibitor of HIV versus the N-methyl analog [7]: more than two log orders more effective |
| CCCCCCN1C[C@H](O)[C@@H](O)[C@H](O)[C@H]1CO [N-hexyl derivative of DNJ] |  |  |  |  |  |  |  |  | 0.2 |  |
| CCCCCCCCCCN1C[C@H](O)[C@@H](O)[C@H](O)[C@H]1CO [N-decyl-DNJ] |  |  |  |  |  |  |  |  |  | inhibition at times lower concentrations than N-butyl-DNJ ([2]; HL-60 cell-based assay): 50 times |
